According to US20150307520A1, “NOVEL HETEROARYL AND HETEROCYCLE COMPOUNDS, COMPOSITIONS AND METHODS THEREOF” (HUTCHISON MEDIPHARMA LIMITED, priority 2012, published 2015):

Columns and labels:
Assay type in all cases: biochemical
p110β/p85α = p110β/p85α (Homo sapiens, UniProt P42338); test: Transcreener KINASE Assay, kinase inhibition of p110β/p85α; details: for PI3Kβ IH % @ 1 uM: 1 uM test compound; for IC50: read-out: PI3Kβ IC50
Method in brief: (§1)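 Steps: compound (2% DMSO final) plus enzyme in HEPES/NaCl/EGTA/CHAPS/3 mM MgCl2/1 mM DTT buffer; start with PIP2/ATP addition (30 uM/10 uM solution); 80 min RT; add ADP detection mix, 60 min RT; read fluorescence polarization.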

p110δ/p85α = p110δ/p85α (Homo sapiens, UniProt O00329); test: Transcreener KINASE Assay, kinase inhibition of p110δ/p85α; details: for PI3Kδ IH % @ 1 uM: 1 uM test compound; for IC50: read-out: PI3Kδ IC50
Chain of p110δ/p85α (O00329 whole entry): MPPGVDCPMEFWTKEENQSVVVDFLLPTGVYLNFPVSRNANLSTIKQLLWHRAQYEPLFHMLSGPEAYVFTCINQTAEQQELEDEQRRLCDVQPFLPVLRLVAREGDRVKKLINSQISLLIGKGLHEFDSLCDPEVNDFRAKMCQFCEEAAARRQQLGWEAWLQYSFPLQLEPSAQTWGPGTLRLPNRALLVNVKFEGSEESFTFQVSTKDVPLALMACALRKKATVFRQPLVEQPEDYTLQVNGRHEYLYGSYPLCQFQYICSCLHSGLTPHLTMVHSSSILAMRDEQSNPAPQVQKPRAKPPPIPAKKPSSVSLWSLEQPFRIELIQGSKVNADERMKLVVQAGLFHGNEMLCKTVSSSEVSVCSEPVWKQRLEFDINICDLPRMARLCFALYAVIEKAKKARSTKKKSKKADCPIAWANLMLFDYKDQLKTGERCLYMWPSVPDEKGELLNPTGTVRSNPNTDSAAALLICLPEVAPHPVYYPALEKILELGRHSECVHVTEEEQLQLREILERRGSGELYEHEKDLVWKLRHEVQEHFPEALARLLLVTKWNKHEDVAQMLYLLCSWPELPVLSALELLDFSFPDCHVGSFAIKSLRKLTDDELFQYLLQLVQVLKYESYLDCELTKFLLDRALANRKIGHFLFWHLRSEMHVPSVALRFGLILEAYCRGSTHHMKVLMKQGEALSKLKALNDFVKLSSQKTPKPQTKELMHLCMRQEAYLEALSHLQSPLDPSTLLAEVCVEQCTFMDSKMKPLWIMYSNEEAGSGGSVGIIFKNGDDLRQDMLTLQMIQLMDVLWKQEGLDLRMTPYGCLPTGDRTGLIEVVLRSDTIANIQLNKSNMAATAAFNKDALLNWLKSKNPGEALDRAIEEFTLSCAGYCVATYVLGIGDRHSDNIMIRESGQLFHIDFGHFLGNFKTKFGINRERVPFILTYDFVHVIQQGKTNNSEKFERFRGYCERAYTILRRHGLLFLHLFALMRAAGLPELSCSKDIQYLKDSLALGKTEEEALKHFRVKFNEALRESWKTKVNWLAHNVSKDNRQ
Chain of p110δ/p85α (P27986 whole entry partner): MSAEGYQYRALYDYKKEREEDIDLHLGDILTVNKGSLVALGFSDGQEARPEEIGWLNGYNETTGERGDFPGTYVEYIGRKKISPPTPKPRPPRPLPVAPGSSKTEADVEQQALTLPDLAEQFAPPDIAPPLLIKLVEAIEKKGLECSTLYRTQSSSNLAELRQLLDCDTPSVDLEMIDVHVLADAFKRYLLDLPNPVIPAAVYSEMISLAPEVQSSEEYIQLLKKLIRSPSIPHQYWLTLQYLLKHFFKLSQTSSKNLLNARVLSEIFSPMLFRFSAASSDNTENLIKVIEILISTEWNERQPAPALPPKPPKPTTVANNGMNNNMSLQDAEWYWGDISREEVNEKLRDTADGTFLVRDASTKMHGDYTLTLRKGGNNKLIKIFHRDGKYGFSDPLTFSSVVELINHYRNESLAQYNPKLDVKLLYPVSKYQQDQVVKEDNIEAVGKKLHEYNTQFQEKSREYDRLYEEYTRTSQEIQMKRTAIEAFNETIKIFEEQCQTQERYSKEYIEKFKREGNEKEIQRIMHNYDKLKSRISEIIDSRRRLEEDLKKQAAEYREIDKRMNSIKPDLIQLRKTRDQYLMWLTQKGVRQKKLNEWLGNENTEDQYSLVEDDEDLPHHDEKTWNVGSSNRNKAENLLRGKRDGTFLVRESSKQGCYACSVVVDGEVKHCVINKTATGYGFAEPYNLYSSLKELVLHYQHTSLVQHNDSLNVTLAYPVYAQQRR
Method in brief: as §1

p110γ = p110γ (Homo sapiens, UniProt P48736); test: Transcreener KINASE Assay, kinase inhibition of p110γ; details: for PI3Kγ IH % @ 1 uM: 1 uM test compound; for IC50: read-out: PI3Kγ IC50
Chain of p110γ (P48736 whole entry): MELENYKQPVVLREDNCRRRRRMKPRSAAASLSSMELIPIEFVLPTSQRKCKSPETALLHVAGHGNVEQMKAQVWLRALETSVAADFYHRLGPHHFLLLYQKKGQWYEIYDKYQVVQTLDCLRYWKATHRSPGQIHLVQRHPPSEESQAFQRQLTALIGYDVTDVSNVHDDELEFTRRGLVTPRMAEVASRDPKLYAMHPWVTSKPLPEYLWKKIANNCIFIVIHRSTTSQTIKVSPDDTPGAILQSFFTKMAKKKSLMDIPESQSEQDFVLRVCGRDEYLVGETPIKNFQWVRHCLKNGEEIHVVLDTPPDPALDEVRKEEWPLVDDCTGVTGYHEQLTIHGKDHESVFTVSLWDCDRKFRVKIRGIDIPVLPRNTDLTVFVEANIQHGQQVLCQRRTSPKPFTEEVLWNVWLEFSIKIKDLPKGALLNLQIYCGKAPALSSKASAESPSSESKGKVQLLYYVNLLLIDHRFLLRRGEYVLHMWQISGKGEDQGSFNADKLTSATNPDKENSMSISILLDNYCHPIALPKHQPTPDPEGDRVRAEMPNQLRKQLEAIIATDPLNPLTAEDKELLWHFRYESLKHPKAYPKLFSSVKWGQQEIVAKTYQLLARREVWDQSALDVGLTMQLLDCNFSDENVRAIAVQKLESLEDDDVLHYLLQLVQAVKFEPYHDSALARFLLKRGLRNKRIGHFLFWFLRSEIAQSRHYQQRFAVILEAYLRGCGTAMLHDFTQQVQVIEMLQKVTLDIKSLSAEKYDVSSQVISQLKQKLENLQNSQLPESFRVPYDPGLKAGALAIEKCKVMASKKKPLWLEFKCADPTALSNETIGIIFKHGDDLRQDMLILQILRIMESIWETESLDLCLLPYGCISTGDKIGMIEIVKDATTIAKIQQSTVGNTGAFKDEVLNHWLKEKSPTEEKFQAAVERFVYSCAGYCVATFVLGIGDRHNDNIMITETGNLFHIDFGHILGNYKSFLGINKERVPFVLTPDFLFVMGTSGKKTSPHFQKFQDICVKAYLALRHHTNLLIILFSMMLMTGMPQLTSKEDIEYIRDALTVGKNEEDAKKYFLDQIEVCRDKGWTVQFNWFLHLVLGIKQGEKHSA
Method in brief: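 Steps: enzyme reaction with compound, 80 min at room temperature; add ADP detection reagent, incubate 60 min at room temperature; read fluorescence polarization. Inhibition and IC50 values are derived from the ADP signal.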

Chain of p110β/p85α (P42338 whole entry): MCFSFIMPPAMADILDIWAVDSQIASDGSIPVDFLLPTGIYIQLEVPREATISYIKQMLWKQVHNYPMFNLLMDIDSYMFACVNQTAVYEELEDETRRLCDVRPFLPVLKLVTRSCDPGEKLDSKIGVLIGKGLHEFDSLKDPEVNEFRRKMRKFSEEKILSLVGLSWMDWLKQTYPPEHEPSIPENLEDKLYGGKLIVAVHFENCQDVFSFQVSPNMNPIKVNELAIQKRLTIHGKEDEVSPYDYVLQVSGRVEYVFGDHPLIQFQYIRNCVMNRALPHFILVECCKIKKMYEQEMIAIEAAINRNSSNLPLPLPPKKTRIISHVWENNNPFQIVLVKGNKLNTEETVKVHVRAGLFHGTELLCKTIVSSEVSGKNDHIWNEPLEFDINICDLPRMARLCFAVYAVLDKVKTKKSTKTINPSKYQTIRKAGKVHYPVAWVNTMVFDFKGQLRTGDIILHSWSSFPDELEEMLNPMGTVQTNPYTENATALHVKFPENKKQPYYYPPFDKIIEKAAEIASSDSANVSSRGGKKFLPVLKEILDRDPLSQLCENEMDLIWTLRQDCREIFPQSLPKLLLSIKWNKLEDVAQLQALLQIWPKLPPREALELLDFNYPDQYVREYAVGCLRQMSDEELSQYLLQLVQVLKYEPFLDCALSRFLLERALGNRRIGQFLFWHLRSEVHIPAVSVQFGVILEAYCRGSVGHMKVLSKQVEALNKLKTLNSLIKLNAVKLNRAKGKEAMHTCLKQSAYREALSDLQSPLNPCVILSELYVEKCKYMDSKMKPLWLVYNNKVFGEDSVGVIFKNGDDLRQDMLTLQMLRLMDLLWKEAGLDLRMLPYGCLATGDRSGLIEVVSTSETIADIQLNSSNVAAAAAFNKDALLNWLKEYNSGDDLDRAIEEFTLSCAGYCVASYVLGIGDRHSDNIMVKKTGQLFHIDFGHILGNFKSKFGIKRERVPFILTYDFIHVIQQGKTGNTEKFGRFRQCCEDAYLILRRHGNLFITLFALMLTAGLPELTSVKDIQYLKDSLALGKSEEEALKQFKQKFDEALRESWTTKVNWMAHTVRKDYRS
Chain of p110β/p85α (P27986 2-724 partner): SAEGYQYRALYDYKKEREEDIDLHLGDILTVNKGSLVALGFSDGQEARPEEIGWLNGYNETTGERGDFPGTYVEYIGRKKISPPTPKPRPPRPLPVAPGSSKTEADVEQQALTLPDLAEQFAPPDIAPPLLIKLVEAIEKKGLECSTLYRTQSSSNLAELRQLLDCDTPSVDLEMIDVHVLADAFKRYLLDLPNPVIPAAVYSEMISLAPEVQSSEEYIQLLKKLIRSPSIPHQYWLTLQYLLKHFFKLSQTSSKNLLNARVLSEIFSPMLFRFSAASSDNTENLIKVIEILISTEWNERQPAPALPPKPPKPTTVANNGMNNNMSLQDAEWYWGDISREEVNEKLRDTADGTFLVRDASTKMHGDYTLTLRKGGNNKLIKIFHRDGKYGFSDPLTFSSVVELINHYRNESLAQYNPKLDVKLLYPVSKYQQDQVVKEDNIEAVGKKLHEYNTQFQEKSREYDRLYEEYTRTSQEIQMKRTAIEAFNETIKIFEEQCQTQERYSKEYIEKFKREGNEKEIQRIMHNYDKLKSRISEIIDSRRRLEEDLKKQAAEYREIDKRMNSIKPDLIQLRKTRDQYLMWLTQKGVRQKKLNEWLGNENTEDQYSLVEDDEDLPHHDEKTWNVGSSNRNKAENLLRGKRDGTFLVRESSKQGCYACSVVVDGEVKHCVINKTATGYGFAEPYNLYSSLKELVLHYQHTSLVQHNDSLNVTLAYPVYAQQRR

SMILES | PI3Kβ IH % @ 1 uM (p110β/p85α) [%] | IC50 (p110β/p85α) [nM] | PI3Kδ IH % @ 1 uM (p110δ/p85α) [%] | IC50 (p110δ/p85α) [nM] | PI3Kγ IH % @ 1 uM (p110γ) [%] | IC50 (p110γ) [nM]
C[S@+]([O-])c1c[nH]c2ncnc(N3CCC[C@H]3c3nn4ccc(F)c4c(=O)n3-c3ccccc3)c12 [Compound 396, 5-fluoro-2-((S)-1-(5-((S)-methylsulfinyl)-7H-pyrrolo[2,3-d]pyrimidin-4-yl)pyrrolidin-2-yl)-3-phenylpyrrolo[2,1-f][1,2,4]triazin-4(3H)-one] | 86.1 | 369 | >100 | 2 | 94.1 | 17
C[S@@+]([O-])c1c[nH]c2ncnc(N3CCC[C@H]3c3nn4ccc(F)c4c(=O)n3-c3ccccc3)c12 [Compound 397, 5-fluoro-2-((S)-1-(5-((R)-methylsulfinyl)-7H-pyrrolo[2,3-d]pyrimidin-4-yl)pyrrolidin-2-yl)-3-phenylpyrrolo[2,1-f][1,2,4]triazin-4(3H)-one] | 52.0 | 2350 | >100 | 11 | 96.5 | 13
CC(=O)c1c(C)nc(N)nc1N1CC[C@H]1c1nn2ccc(Cl)c2c(=O)n1-c1ccccc1 [Compound 398] | 22.6 |  | 99.1 | 25 | >100 | 18
C[S+]([O-])c1cnc(N)nc1N1CC[C@H]1c1nn2ccc(Cl)c2c(=O)n1-c1ccccc1 (stereo partly drawn) [Compound 399] | 3.5 |  | 35.1 |  | 70.3 | 
O=C1C[C@@H](c2nn3ccc(F)c3c(=O)n2-c2ccccc2)N(c2ncnc3[nH]cnc23)C1 [Compound 400] | 22.2 |  | >100 | 12 | 70.4 | 81
N#Cc1cnc(N)nc1N1CC(=O)C[C@H]1c1nn2ccc(F)c2c(=O)n1-c1ccccc1 [Compound 401] | 46.7 |  | >100 | 4 | 67.8 | 189
CC(=O)c1c[nH]c2ncnc(N3CC(=O)C[C@H]3c3nn4ccc(Cl)c4c(=O)n3-c3ccccc3)c12 [Compound 402] | 21.7 |  | 93.4 | 67 | 65.8 | 
N#Cc1cnc(N)nc1N1CC(=O)C[C@H]1c1nn2ccc(Cl)c2c(=O)n1-c1ccccc1 [Compound 403] | 71.7 | 123 | 98.1 | 1 | 93.1 | 7
N#Cc1cnc(N)nc1N1CC(=O)C[C@H]1c1nn2ccc(Cl)c2c(=O)n1-c1cccc(F)c1 [Compound 404] | 31.1 |  | 93.7 | 3 | 95.6 | 10
CC(=O)c1c[nH]c2ncnc(N[C@H](C)c3cn4ccc(F)c4c(=O)n3-c3ccccc3)c12 [Compound 405, (R)-3-(1-((5-acetyl-7H-pyrrolo[2,3-d]pyrimidin-4-yl)amino)ethyl)-8-fluoro-2-phenylpyrrolo[1,2-a]pyrazin-1(2H)-one] | 86.5 | 332 | >100 | 3 | 92.3 | 2
CC(=O)c1c[nH]c2ncnc(N[C@@H](C)c3cn4ccc(F)c4c(=O)n3-c3ccccc3)c12 [Compound 406, (S)-3-(1-((5-acetyl-7H-pyrrolo[2,3-d]pyrimidin-4-yl)amino)ethyl)-8-fluoro-2-phenylpyrrolo[1,2-a]pyrazin-1(2H)-one] | 7.7 |  | 90.0 | 73 | 35.2 | 
C[C@H]1CN(c2nc(N)ncc2C#N)C1c1nn2ccc(F)c2c(=O)n1-c1ccccc1 (stereo partly drawn) [Compound 430] | 28.1 |  | 93.9 | 13 | 87.3 | 52
C[C@H]1CN(c2nc(N)ncc2C#N)C1c1nn2ccc(Cl)c2c(=O)n1-c1ccc(F)cc1 (stereo partly drawn) [Compound 432] | 43.2 |  | 81.3 | 160 | 89.0 | 9
CC(=O)c1cnc(N)nc1NC(C)c1cn2ccc(Cl)c2c(=O)n1-c1cccc(F)c1 (stereo not drawn) [Compound 435] | 91.2 | 14 | 99.7 | 3 | 83.7 | 
Cc1nc(N)nc(N2C[C@H](C)C2c2nn3ccc(Cl)c3c(=O)n2-c2ccccc2)c1C#N (stereo partly drawn) [Compound 437] | 97.1 | 27 | 96.3 | 1 | 91.3 | 2
CC(=O)c1cnc(N)nc1N1C[C@H](C)C1c1nn2ccc(F)c2c(=O)n1-c1ccc(F)cc1 (stereo partly drawn) [Compound 438] | 79.3 | 273 | 91.2 | 23 | 91.4 | 6

SMILES | PI3Kβ IH % @ 1 uM (p110β/p85α) [%] | IC50 (p110β/p85α) [nM] | PI3Kδ IH % @ 1 uM (p110δ/p85α) [%] | IC50 (p110δ/p85α) [nM] | PI3Kγ IH % @ 1 uM (p110γ) [%] | IC50 (p110γ) [nM]
Cc1nc(N)nc(N2C[C@H](C)C2c2nn3ccc(Cl)c3c(=O)n2-c2ccc(F)cc2)c1C#N (stereo partly drawn) [Compound 439] | 93.0 | 22 | 98.1 | 2 | 92.4 | 3
CC(=O)c1cnc(N)nc1N1CC[C@H]1c1nn2ccc(Cl)c2c(=O)n1-c1cccc(F)c1 [Compound 440] | 20.3 |  | 95.2 | 11 | 95.8 | 17
Cc1nc(N)nc(N2CC[C@H]2c2nn3ccc(Cl)c3c(=O)n2-c2cccc(F)c2)c1C#N [Compound 441] | 56.2 |  | 95.5 | 2 | 97.7 | 14
Cc1nc(N)nc(N2CC[C@H]2c2nn3ccc(Cl)c3c(=O)n2-c2ccc(F)cc2)c1C#N [Compound 442] | 76.1 |  | 94.2 | 12 | 94.6 | 1
CC(=O)c1c[nH]c2ncnc(N3CC(=O)C[C@H]3c3nn4ccc(F)c4c(=O)n3-c3ccccc3)c12 [Compound 445] | 22.3 |  | 77.5 | 240 | 4.3 | 
CC(=O)c1cnc(N)nc1N1CC(=O)C[C@H]1c1nn2ccc(F)c2c(=O)n1-c1ccccc1 [Compound 446] | 20.1 |  | 85.8 | 319 | 40.0 | 
CC(=O)c1cnc(N)nc1N[C@@H](C)c1cc2ncc(Cl)n2c(=O)n1-c1ccccc1 [Compound 447, (S)-7-(1-((5-acetyl-2-aminopyrimidin-4-yl)amino)ethyl)-3-chloro-6-phenylimidazo[1,2-c]pyrimidin-5(6H)-one] | 95.8 | 22 | 99.5 | 0.4 | >100 | 4
Cc1nc(N)nc(N2C[C@H](C)[C@H]2c2nn3ccc(F)c3c(=O)n2-c2ccc(F)cc2)c1C#N [Compound 463] | 89.6 | 50 | >100 | 4 | >100 | 5
C[C@H]1CN(c2nc(N)ncc2Cl)[C@@H]1c1nn2ccc(F)c2c(=O)n1-c1ccccc1 [Compound 464] | 33.0 |  | >100 | 5 | 80.6 | 138
C[C@H]1CN(c2nc(N)ncc2Cl)[C@@H]1c1nn2ccc(Cl)c2c(=O)n1-c1ccccc1 [Compound 465] | 45.0 |  | >100 | 8 | 94.1 | 23
CC1(C)CN(c2nc(N)ncc2Cl)C1c1nn2ccc(Cl)c2c(=O)n1-c1ccccc1 (stereo not drawn) [Compound 466] | 45.4 |  | >100 | 20 | 93.9 | 48
C[C@H]1CN(c2ncnc3[nH]cc(C#N)c23)[C@@H]1c1nn2ccc(Cl)c2c(=O)n1-c1ccc(F)cc1 [Compound 468] | 74.0 | 311 | >100 | 20 | 96.6 | 
Cc1nc(N)nc(N2C[C@H](C)[C@H]2c2nn3ccc(Cl)c3c(=O)n2-c2ccccc2)n1 [Compound 469] | 47.1 |  | >100 | 19 | 90.5 | 51
CC(=O)c1cnc(N)nc1N1CC[C@@H]1c1nn2ccc(Cl)c2c(=O)n1-c1ccccc1 [Compound 470] | 4.9 |  | 27.8 |  | 36.6 | 
CC(=O)c1cnc(N)nc1N1CCC1c1nn2ccc(Cl)c2c(=O)n1-c1ccccn1 (stereo not drawn) [Compound 474] | 48.3 |  | 99.3 | 7 | 98.2 | 9
C[C@H]1CN(c2ncnc3[nH]cc(C#N)c23)[C@@H]1c1nn2ccc(Cl)c2c(=O)n1-c1ccccn1 [Compound 476] | 78.1 | 79 | 95.9 | 1 | 89.5 | 24
